We go through 21 compounds from ChEMBL document CHEMBL5331139, “First-in-Class Dual Targeting Compounds for the Management of Seizures in Glucose Transporter Type 1 Deficiency Syndrome” (J Med Chem, 2023).

Some targets named below: Carbonic anhydrase 1 (Homo sapiens, UniProt P00915); Carbonic anhydrase 2 (Homo sapiens, UniProt P00918); Carbonic anhydrase 4 (Homo sapiens, UniProt P22748); Carbonic anhydrase 7 (Homo sapiens, UniProt P43166); Carbonic anhydrase 12 (Homo sapiens, UniProt O43570).
Data set [1] has as its target Carbonic anhydrase 5A, mitochondrial (Homo sapiens, UniProt P35218).
Description: Binding affinity to human recombinant carbonic anhydrase 5A assessed as inhibition constant incubated for 15 mins by phenol red based stopped-flow CO2 hydration assay
Data set [2] has as its target Carbonic anhydrase 5B, mitochondrial (Homo sapiens, UniProt Q9Y2D0).
Description: Binding affinity to human recombinant carbonic anhydrase 5B assessed as inhibition constant incubated for 15 mins by phenol red based stopped-flow CO2 hydration assay
Data set [3] in a line: in vivo. The following applies: C57BL/6, mouse, 300 mg/kg.
Description: Toxicity in MES induced C57BL/6 mouse model assessed as animal death at 300 mg/kg
The nature of data set [4]: in vivo. The following applies: C57BL/6, mouse, 200 mg/kg.
Description: Toxicity in MES induced C57BL/6 mouse model assessed as mortality at 200 mg/kg

Chain of Carbonic anhydrase 5B, mitochondrial (Q9Y2D0 whole entry): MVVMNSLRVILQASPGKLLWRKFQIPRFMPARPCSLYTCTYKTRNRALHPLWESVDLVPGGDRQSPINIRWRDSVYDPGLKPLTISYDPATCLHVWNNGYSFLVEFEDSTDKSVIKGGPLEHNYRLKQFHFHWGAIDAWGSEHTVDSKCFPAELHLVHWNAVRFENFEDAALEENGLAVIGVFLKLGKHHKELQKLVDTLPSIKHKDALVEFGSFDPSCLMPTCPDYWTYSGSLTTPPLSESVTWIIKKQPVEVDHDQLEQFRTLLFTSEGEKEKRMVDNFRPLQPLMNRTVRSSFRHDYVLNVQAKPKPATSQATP
Chain of Carbonic anhydrase 7 (P43166 whole entry): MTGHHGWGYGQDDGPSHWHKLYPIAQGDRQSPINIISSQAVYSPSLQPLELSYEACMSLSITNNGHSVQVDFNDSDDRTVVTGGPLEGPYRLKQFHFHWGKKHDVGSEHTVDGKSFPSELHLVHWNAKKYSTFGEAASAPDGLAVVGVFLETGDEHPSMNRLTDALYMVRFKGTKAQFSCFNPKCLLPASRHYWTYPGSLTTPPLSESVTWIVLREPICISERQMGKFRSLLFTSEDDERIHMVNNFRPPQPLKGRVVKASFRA
Chain of Carbonic anhydrase 12 (O43570 whole entry): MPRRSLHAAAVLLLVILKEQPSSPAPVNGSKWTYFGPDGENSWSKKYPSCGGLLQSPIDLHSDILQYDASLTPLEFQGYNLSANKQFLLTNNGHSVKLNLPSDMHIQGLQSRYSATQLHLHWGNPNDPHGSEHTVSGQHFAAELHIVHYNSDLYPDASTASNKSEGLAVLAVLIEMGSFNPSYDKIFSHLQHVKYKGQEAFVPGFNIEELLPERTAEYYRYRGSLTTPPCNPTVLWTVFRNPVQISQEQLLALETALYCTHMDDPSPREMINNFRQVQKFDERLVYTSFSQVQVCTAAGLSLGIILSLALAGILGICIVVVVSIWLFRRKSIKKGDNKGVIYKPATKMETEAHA
Chain of Carbonic anhydrase 5A, mitochondrial (P35218 whole entry): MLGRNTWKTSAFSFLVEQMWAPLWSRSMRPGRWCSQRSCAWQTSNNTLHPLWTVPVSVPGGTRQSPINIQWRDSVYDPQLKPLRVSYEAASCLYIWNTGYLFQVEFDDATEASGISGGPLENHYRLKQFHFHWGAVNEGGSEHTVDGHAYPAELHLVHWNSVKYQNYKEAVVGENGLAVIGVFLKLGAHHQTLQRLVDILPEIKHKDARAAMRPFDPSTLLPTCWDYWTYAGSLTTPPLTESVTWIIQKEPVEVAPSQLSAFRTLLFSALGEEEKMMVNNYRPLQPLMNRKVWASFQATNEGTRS
Chain of Carbonic anhydrase 4 (P22748 whole entry): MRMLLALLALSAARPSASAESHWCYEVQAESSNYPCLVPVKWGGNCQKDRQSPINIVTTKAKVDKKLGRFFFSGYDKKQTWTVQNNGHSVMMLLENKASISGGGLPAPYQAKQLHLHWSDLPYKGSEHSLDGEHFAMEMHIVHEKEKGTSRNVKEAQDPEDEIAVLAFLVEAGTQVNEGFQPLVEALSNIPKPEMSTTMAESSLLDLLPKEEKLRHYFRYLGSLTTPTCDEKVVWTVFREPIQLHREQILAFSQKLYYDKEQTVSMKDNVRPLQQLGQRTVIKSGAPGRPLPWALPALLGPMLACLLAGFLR
Chain of Carbonic anhydrase 1 (P00915 whole entry): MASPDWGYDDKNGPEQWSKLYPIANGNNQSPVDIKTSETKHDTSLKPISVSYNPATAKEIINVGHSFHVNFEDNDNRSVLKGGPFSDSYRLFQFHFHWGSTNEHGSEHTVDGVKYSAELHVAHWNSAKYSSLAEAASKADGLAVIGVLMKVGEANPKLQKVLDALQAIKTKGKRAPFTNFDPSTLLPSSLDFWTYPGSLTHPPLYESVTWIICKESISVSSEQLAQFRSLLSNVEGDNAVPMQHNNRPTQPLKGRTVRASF
Description for Carbonic anhydrase 12: Binding affinity to human recombinant carbonic anhydrase 12 assessed as inhibition constant incubated for 15 mins by phenol red based stopped-flow CO2 hydration assay
Description for Carbonic anhydrase 2: Binding affinity to human recombinant carbonic anhydrase 2 assessed as inhibition constant incubated for 15 mins by phenol red based stopped-flow CO2 hydration assay
Description for Carbonic anhydrase 4: Binding affinity to human recombinant carbonic anhydrase 4 assessed as inhibition constant incubated for 15 mins by phenol red based stopped-flow CO2 hydration assay
Description for Carbonic anhydrase 7: Binding affinity to human recombinant carbonic anhydrase 7 assessed as inhibition constant incubated for 15 mins by phenol red based stopped-flow CO2 hydration assay

The Ki is a measure of affinity in units of concentration, obtained from inhibition or displacement. One may read the mortality as the percentage killed. Read a high mortality as a strong lethal effect. As for `CC(=O)OC[C@H]1O[C@@H]([Se]c2ccc(S(N)(=O)=O)cc2)[C@H](OC(C)=O)[C@@H](OC(C)=O)[C@@H]1OC(C)=O`, the Ki at Carbonic anhydrase 1 stood at 80.3 nM; on Carbonic anhydrase 2, 41.4 nM; on Carbonic anhydrase 4 it was 4120 nM; in data set [1] it was 596 nM; in [2] it was 707 nM; at Carbonic anhydrase 7 it was 14.6 nM. At Carbonic anhydrase 12, this compound gave a Ki of 9440 nM. In the data set “in vivo [3]”, the mortality worked out at 20%.
For `NS(=O)(=O)c1ccc([Se][C@@H]2O[C@H](CO)[C@H](O)[C@H](O)[C@H]2O)cc1`, the Ki at Carbonic anhydrase 1 came to 647 nM; on Carbonic anhydrase 2, 53.7 nM; on Carbonic anhydrase 4, 580 nM; in [1], 427 nM; in [2], 8.7 nM; at Carbonic anhydrase 7 it was 30.3 nM. Moreover, the Ki on Carbonic anhydrase 12 amounted to 82.4 nM.
As for `CC(=O)OC[C@H]1O[C@@H]([Se]c2ccc(NC(=O)c3ccc(S(N)(=O)=O)cc3)cc2)[C@H](OC(C)=O)[C@@H](OC(C)=O)[C@@H]1OC(C)=O`, the Ki at Carbonic anhydrase 1 came out at 85.2 nM; on Carbonic anhydrase 2, 5.1 nM; at Carbonic anhydrase 4 it was 378 nM; in data set [1] it was 90.6 nM; in data set [2], 8.7 nM; on Carbonic anhydrase 7, 2.8 nM. The compound also had an inhibition constant (Ki) at Carbonic anhydrase 12 of 9.4 nM.
Regarding `NS(=O)(=O)c1ccc([Se][C@@H]2O[C@H](CO)[C@@H](O)[C@H](O)[C@H]2O)cc1`, the Ki came out at 541 nM on Carbonic anhydrase 1; 13.8 nM on Carbonic anhydrase 2; 647 nM at Carbonic anhydrase 4; 325 nM in data set [1]; 87.3 nM in data set [2]; 263 nM at Carbonic anhydrase 7. This compound returned an inhibitory constant (Ki) on Carbonic anhydrase 12 of 589 nM.
Regarding `CC(=O)O[C@H]1[C@@H](OC(C)=O)[C@@H](CO)O[C@@H]([Se]c2ccc(S(N)(=O)=O)cc2)[C@@H]1OC(C)=O`, the Ki on Carbonic anhydrase 1 came to 86.2 nM; at Carbonic anhydrase 2 it was 17.2 nM; at Carbonic anhydrase 4, 146 nM; in [1], 96.8 nM; in data set [2], 2.6 nM; on Carbonic anhydrase 7, 0.8 nM. In addition, the affinity at Carbonic anhydrase 12, expressed as Ki, was 42.3 nM.
In the case of `NS(=O)(=O)c1ccc(C(=O)Nc2ccc([Se][C@@H]3O[C@H](CO)[C@H](O)[C@H](O)[C@H]3O)cc2)cc1`, the inhibition constant (Ki) at Carbonic anhydrase 1 came out at 48 nM; on Carbonic anhydrase 2, 1.7 nM; on Carbonic anhydrase 4, 348 nM; in data set [1], 120 nM; in data set [2], 88 nM; at Carbonic anhydrase 7, 9.6 nM. Further, the inhibition constant Ki on Carbonic anhydrase 12 stood at 90.5 nM.
Regarding `Nc1cc([Se][C@@H]2O[C@H](CO)[C@@H](O)[C@H](O)[C@H]2O)ccc1S(N)(=O)=O`, the Ki on Carbonic anhydrase 1 was 7680 nM; on Carbonic anhydrase 2, 4010 nM; at Carbonic anhydrase 4 it was greater than 10000 nM; in [1], 2300 nM; in data set [2], greater than 10000 nM; at Carbonic anhydrase 7, greater than 10000 nM. On Carbonic anhydrase 12, this compound came in with an inhibition constant Ki of 2560 nM.
Take `CC(=O)OC[C@H]1O[C@@H]([Se]c2ccc(NC(=O)c3ccc(S(N)(=O)=O)cc3)cc2)[C@H](OC(C)=O)[C@@H](OC(C)=O)[C@H]1OC(C)=O`: the inhibition constant Ki on Carbonic anhydrase 1 came to 51.4 nM; at Carbonic anhydrase 2 it was 4 nM; at Carbonic anhydrase 4, 30.8 nM; in data set [1], 57.4 nM; in data set [2] it was 4 nM; on Carbonic anhydrase 7 it was 0.7 nM. In addition, on Carbonic anhydrase 12, the affinity, expressed as Ki, was 5.6 nM.
With `CC(=O)OC[C@H]1O[C@@H]([Se]c2ccc(NC(=O)c3ccc(Cl)c(S(N)(=O)=O)c3)cc2)[C@H](OC(C)=O)[C@@H](OC(C)=O)[C@@H]1OC(C)=O`, the Ki at Carbonic anhydrase 1 was greater than 10000 nM; at Carbonic anhydrase 2, 214 nM; at Carbonic anhydrase 4, 1570 nM; in data set [1], 348 nM; in data set [2], 40.9 nM; at Carbonic anhydrase 7 it was 87.3 nM. This compound also gave an inhibition constant Ki at Carbonic anhydrase 12 greater than 10000 nM.
Regarding `NS(=O)(=O)c1ccc(C(=O)Nc2ccc([Se][C@@H]3O[C@H](CO)[C@@H](O)[C@H](O)[C@H]3O)cc2)cc1`, the inhibitory constant (Ki) at Carbonic anhydrase 1 amounted to 46.4 nM; at Carbonic anhydrase 2, 6.1 nM; on Carbonic anhydrase 4 it was 8.9 nM; in data set [1], 45.1 nM; in [2], 3 nM; on Carbonic anhydrase 7 it was 0.9 nM. On Carbonic anhydrase 12, this compound came in with a Ki of 7.2 nM.
`CC(=O)OC[C@H]1O[C@@H]([Se]c2ccc(NC(=S)Nc3ccc(S(N)(=O)=O)cc3)cc2)[C@H](OC(C)=O)[C@@H](OC(C)=O)[C@H]1OC(C)=O`: the Ki on Carbonic anhydrase 1 is 48.1 nM; at Carbonic anhydrase 2, 6.6 nM; at Carbonic anhydrase 4, 362 nM; in [1] it was 482 nM; in [2] it was 4.7 nM; at Carbonic anhydrase 7, 2 nM. For the same compound, the Ki on Carbonic anhydrase 12 is 34.2 nM.
Turning to `CC(=O)O[C@@H]1[C@@H](OC(C)=O)[C@H]([Se]c2ccc(S(N)(=O)=O)cc2)O[C@H](CO)[C@H]1OC(C)=O`, the Ki is 78.4 nM at Carbonic anhydrase 1; 3.7 nM at Carbonic anhydrase 2; 67.1 nM on Carbonic anhydrase 4; 736 nM in data set [1]; 5.5 nM in [2]; 4.1 nM at Carbonic anhydrase 7. At Carbonic anhydrase 12, the inhibition constant Ki was found to be 5.9 nM.
Turning to `CC(=O)OC[C@H]1O[C@@H]([Se]c2ccc(S(N)(=O)=O)c(N)c2)[C@H](OC(C)=O)[C@@H](OC(C)=O)[C@@H]1OC(C)=O`, the inhibitory constant (Ki) is greater than 10000 nM on Carbonic anhydrase 1; 6290 nM on Carbonic anhydrase 2; greater than 10000 nM at Carbonic anhydrase 4; 2540 nM in data set [1]; greater than 10000 nM in data set [2]; greater than 10000 nM on Carbonic anhydrase 7. The same compound showed a Ki at Carbonic anhydrase 12 greater than 10000 nM.
For `NS(=O)(=O)c1cc(C(=O)Nc2ccc([Se][C@@H]3O[C@H](CO)[C@H](O)[C@H](O)[C@H]3O)cc2)ccc1Cl`, the Ki was 637 nM on Carbonic anhydrase 1; 14.8 nM at Carbonic anhydrase 2; 77.7 nM at Carbonic anhydrase 4; 215 nM in [1]; 21.9 nM in data set [2]; 29.7 nM at Carbonic anhydrase 7. Moreover, on Carbonic anhydrase 12, the inhibition constant Ki was determined as 88.7 nM.
Turning to `CC(=O)O[C@H]1[C@@H](OC(C)=O)[C@@H](CO)O[C@@H]([Se]c2ccc(S(N)(=O)=O)c(N)c2)[C@@H]1OC(C)=O`, the inhibition constant Ki on Carbonic anhydrase 1 was 6820 nM; on Carbonic anhydrase 2, 6660 nM; at Carbonic anhydrase 4, 7280 nM; in data set [1], 236 nM; in data set [2], 172 nM; on Carbonic anhydrase 7, greater than 10000 nM. The same compound yielded an inhibition constant (Ki) at Carbonic anhydrase 12 greater than 10000 nM.
Turning to `CC(=O)OC[C@H]1O[C@@H]([Se]c2ccc(NC(=S)Nc3ccc(S(N)(=O)=O)cc3)cc2)[C@H](OC(C)=O)[C@@H](OC(C)=O)[C@@H]1OC(C)=O`, the inhibition constant (Ki) was determined as 53.1 nM at Carbonic anhydrase 1; 6.3 nM on Carbonic anhydrase 2; 555 nM at Carbonic anhydrase 4; 254 nM in [1]; 8.9 nM in [2]; 1.8 nM on Carbonic anhydrase 7. Further, at Carbonic anhydrase 12, the affinity, expressed as Ki, was 55.8 nM.
`NS(=O)(=O)c1ccc(S(=O)(=O)[C@@H]2O[C@H](CO)[C@@H](O)[C@H](O)[C@H]2O)cc1`: the inhibitory constant (Ki) in data set [2] turned out to be 4.2 nM; at Carbonic anhydrase 7 it was 2.2 nM.
Take `CC(=O)OC[C@H]1O[C@@H]([Se]c2ccc(S(N)(=O)=O)c(N)c2)[C@H](OC(C)=O)[C@@H](OC(C)=O)[C@H]1OC(C)=O`: the Ki at Carbonic anhydrase 1 is 9600 nM; at Carbonic anhydrase 2, 6320 nM; on Carbonic anhydrase 4, greater than 10000 nM; in [1], 6570 nM; in data set [2] it was 406 nM; at Carbonic anhydrase 7, greater than 10000 nM. The inhibition constant (Ki) at Carbonic anhydrase 12 was greater than 10000 nM.
Consider `CC(=O)OC[C@H]1O[C@@H]([Se]c2ccc(S(N)(=O)=O)cc2)[C@H](OC(C)=O)[C@@H](OC(C)=O)[C@H]1OC(C)=O`, for which the Ki was 95.8 nM on Carbonic anhydrase 1; 4.1 nM at Carbonic anhydrase 2; 344 nM on Carbonic anhydrase 4; 87.2 nM in [1]; 6.6 nM in [2]; 0.5 nM on Carbonic anhydrase 7. The compound also showed a Ki on Carbonic anhydrase 12 of 804 nM.
Regarding `NS(=O)(=O)c1ccc(NC(=S)Nc2ccc([Se][C@@H]3O[C@H](CO)C(O)[C@H](O)[C@H]3O)cc2)cc1` (single isomer, unassigned; 16a), the inhibition constant (Ki) at Carbonic anhydrase 1 worked out at 71.4 nM; on Carbonic anhydrase 2, 5.2 nM; on Carbonic anhydrase 4, 283 nM; in data set [1], 70.5 nM; in data set [2] it was 7.6 nM; at Carbonic anhydrase 7, 4.4 nM. At Carbonic anhydrase 12, this compound returned a Ki of 19.8 nM. In the data set “in vivo [4]”, the mortality turned out to be 30%.
On to `NS(=O)(=O)c1ccc(NC(=S)Nc2ccc([Se][C@@H]3O[C@H](CO)C(O)[C@H](O)[C@H]3O)cc2)cc1` (single isomer, unassigned; 16b), for which the Ki stood at 41.5 nM at Carbonic anhydrase 1; 4.5 nM at Carbonic anhydrase 2; 77.7 nM at Carbonic anhydrase 4; 358 nM in data set [1]; 6.2 nM in data set [2]; 0.9 nM at Carbonic anhydrase 7. At Carbonic anhydrase 12, this compound registered a Ki of 9.1 nM.
